The Ki is a dissociation constant, usually derived from enzyme kinetics or from competition with a known ligand.

In the test the target is T1, Secreted chorismate mutase (Mycobacterium tuberculosis, UniProt P9WIB9).
T1 sequence (P9WIB9 whole entry): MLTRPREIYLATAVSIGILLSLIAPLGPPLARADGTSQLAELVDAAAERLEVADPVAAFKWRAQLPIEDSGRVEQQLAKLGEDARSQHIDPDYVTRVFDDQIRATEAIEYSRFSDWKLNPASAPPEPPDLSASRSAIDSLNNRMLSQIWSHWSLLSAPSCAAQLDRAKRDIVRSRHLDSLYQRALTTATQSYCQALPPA
Briefly: Inhibition of chorismate mutase in Mycobacterium tuberculosis H37Rv strain.
As to `CNc1ccc(C(=O)OC)cc1[N+](=O)[O-]`, the affinity, expressed as Ki, was 28.8 µM. As for `COc1cc(/C=C(\C(=O)O)c2ccc(Cl)cc2)c([N+](=O)[O-])cc1OC`, the figure is 17.7 µM; as for `CC(C)CC(NC(=O)C1CSC(c2ccccc2)N1C(=O)OC(C)(C)C)C(=O)O` (centres undefined), 21.1 µM. The result for `COc1ccc(CCNc2c([N+](=O)[O-])cc(C(=O)O)cc2S(N)(=O)=O)cc1OC` reads 5.7 µM.

Values taken from ChEMBL document CHEMBL1147973, “Ligand based virtual screening and biological evaluation of inhibitors of chorismate mutase (Rv1885c) from Mycobacterium tuberculosis H37Rv” (Bioorg Med Chem Lett, 2007).
